The record followed here is paper PMC5429769, “Rational development of Stafib-2: a selective, nanomolar inhibitor of the transcription factor STAT5b” (Scientific Reports, 2017).

Molecules are shown by their SMILES. Residue numbers refer to the chain shown, from its start.

In one test the target is T1, STAT5b Phe633Ala (Homo sapiens, UniProt P51692, F633A).
T1 sequence (P51692 1-787 F633A): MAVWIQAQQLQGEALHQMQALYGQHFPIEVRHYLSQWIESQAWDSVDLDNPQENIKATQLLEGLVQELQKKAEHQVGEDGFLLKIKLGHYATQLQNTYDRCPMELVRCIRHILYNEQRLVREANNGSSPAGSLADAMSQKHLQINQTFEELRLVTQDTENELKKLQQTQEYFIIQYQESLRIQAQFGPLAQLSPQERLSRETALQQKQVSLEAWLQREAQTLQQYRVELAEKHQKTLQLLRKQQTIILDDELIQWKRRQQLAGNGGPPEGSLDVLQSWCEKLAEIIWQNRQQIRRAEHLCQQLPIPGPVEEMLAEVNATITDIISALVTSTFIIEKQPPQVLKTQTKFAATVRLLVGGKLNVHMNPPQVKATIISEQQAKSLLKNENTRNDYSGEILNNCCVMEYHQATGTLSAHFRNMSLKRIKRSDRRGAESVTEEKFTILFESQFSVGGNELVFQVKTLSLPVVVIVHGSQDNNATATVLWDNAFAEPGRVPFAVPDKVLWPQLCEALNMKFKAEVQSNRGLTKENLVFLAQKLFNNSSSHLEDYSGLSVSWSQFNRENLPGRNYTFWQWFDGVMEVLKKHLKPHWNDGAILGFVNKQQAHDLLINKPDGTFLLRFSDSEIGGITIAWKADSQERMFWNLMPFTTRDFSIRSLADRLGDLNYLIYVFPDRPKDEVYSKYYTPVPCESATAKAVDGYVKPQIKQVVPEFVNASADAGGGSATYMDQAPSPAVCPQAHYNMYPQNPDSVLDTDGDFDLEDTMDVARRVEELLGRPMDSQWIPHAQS
Description: Isothermal titration calorimetry, STAT5b Phe633Ala. The format is binding. The conditions noted are these: ITC, 25 °C, n = 2. (In general: In ITC the heat of successive injections is recorded.)

The next test concerns the target T2, STAT5a wild-type (Homo sapiens, UniProt P42229).
T2 sequence (P42229 1-794): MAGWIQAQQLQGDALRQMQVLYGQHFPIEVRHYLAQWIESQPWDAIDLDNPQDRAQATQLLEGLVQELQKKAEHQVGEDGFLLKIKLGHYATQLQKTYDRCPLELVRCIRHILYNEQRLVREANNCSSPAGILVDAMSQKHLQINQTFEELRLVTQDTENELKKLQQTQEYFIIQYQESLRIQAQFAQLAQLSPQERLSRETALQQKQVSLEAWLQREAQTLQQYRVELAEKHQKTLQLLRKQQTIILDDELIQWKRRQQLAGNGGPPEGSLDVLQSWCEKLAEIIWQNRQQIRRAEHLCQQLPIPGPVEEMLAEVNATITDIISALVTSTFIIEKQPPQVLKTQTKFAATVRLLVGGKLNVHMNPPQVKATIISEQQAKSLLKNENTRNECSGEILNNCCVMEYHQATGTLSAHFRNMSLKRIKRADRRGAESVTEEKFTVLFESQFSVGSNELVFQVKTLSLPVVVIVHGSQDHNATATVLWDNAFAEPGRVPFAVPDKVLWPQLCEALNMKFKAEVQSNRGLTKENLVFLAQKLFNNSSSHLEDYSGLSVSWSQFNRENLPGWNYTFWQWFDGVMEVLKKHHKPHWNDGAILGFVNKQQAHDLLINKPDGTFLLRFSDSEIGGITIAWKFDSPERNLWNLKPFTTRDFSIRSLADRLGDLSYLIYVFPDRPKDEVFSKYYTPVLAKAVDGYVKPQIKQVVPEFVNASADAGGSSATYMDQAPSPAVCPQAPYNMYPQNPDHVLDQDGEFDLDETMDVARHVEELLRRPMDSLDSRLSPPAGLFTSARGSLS
Nature of the test: Isothermal titration calorimetry, STAT5a wild-type. The class given is binding.

The target of the next test is T3, STAT5b-GFP (Homo sapiens, UniProt P51692).
T3 sequence (P51692 1-787): T1 sequence (P51692 1-787 F633A) with A633F
Description: STAT5b Tyr699 phosphorylation in STAT5b-GFP-transfected K562 cells (Western blot). The format is cell-based.

The next test has as its system STAT5a-GFP. Description: STAT5a Tyr694 phosphorylation in STAT5a-GFP-transfected K562 cells (Western blot). The class given is cell-based, human. Conditions: 4 h, result in words. Background: A western blot detects proteins with antibodies after separation by electrophoresis.

With `O=C(COc1ccc(C(=O)Nc2ccc(Oc3ccccc3)cc2)cc1)NCc1ccc(OP(=O)(O)O)c(OP(=O)(O)O)c1` [compound 4, 4-((2-(4-((4-phenoxyphenyl)carbamoyl)phenoxy)acetamido)methyl)-1,2-phenylene bis(dihydrogen phosphate)], at STAT5b Phe633Ala, the equilibrium dissociation constant (Kd) – broadly, the concentration at which binding is half-saturated – amounted to 1.65 ± 0.02 µM; the ΔH is -4.3 ± 0.2 kcal/mol; the “−TΔS” value is -3.6 ± 0.2 kcal/mol. Moreover, the “fold lower affinity for STAT5a than for STAT5b” value at STAT5a wild-type (ITC Kd STAT5a vs wild-type STAT5b) is listed as “approximately 20 fold”. The Kd on STAT5a wild-type (ITC, 25 °C, STAT5a) amounted to 6.1 ± 3.2 µM. In addition, the “inhibition of STAT5b phosphorylation” value against STAT5b-GFP is on record as “did not show significant activity”. The “inhibition of STAT5a phosphorylation” value in the test with STAT5a-GFP was “did not show significant activity”.
